{C12NH2} = amino-(CH2)12 linker attached through a phosphate; {C12NH2-P} = aminododecyl phosphate linker; {FITC} = fluorescein isothiocyanate label
Tested on: HepG2 cells
Test: Transmembrane transfer of DNA/RNA fragments and drug-delivery precursors into HepG2 cells, laser confocal microscope
Assay type: cell-based
Settings: 4 nmol, X-tremeGENEsiRNA transfection reagent, 6 h, laser confocal microscope (FIG. 11)
Procedure: 24 h before transfer, the HepG2 cells in the phase of logarithmic growth were digested with trypsin; a culture medium containing 10% serum was used for adjusting the cell density to 0.5×10^6 cells/mL; and the cells were inoculated again in a cell culture dish of 15 cm and cultured in a culture incubator containing 5% CO2 at 37° C. The cells may be used for experiments when the cell density reaches 60% to 70% 24 h later.
4 nmol of the above-mentioned single-stranded or double-stranded DNA/RNA fragments in different sequences and various drug-delivery precursors was added to a sterile centrifuge tube (tube A) of 15 mL, respectively, and uniformly mixed with Opti-MEM in a corresponding volume, with a total volume of 2 mL; the X-tremeGENEsiRNA reagent was shaken gently, and 160 μL of X-tremeGENEsiRNA reagent was mixed with 1.84 mL of Opti-MEM in another tube (tube B); and the solution in the tube A was mixed with the solution in the tube B, the mixture was slightly triturated by a pipette and incubated for 20 min at room temperature.
6 mL of RPMI-1640 serum-free culture medium was added to the mixture and mixed uniformly; the primary culture medium in the HepG2 cell culture dish was discarded, and slightly triturated with RPMI-1640 serum-free culture medium once; and then, the mixture was moved into the HepG2-PT cell culture dish, and cultured in a culture incubator containing 5% CO2 at 37° C.

Compound | transfer into cells and positioning in the cells
5-NH2—(CH2)12—PO4-TGGGCTGGCCAAACTGCTG-3′-FITC (DNA, 5' {C12NH2}, 3' {FITC}, backbone not given here) | may be all transferred into cells by X-tremesiRNA, with most of them into the cytoplasm and a few of them into the cell nucleus
5′-NH2—(CH2)2—PO4-A19-3′-FITC [polyA of 19 bp] | may be all transferred into cells by X-tremesiRNA, with most of them into the cytoplasm and a few of them into the cell nucleus
5′-NH2—(CH2)12—PO4-A5-3′-FITC [polyA of 5 bp] | may be all transferred into cells by X-tremesiRNA, with most of them into the cytoplasm and a few of them into the cell nucleus
5′-NH2—(CH2)12—PO4-A38-3′-FITC [polyA of 38 bp] | may be all transferred into cells by X-tremesiRNA, with most of them into the cytoplasm and a few of them into the cell nucleus
5′-NH2—(CH2)12—PO4TGGGCTGGCCAAACTGCTG-3′-FITC: 5′-CAGCAGTTTGGCCAGCCCA-3′ (chain 1: DNA, 5' {C12NH2-P}, 3' {FITC}, backbone not given here; chain 2: DNA, backbone not given here) | may be all transferred into cells by X-tremesiRNA, with most of them into the cytoplasm and a few of them into the cell nucleus

Tested on: HepG2 cells
Test: not given
Settings: original compound 2 linked to the fluorescent tag (FIG. 8A)

Compound | entry into cells
C#CCN(CC1CCN(C(=O)Nc2ccccc2)CC1)c1cccc(-c2sc(C(=O)O)c(OCC(=O)O)c2Br)c1 [compound 2, 4-bromo-3-oxoacetic acid-5-(3-(((1-phenylcarbamoylpiperidine)-4-methyl)-N-propargylamine)phenyl)thiophene-2-formic acid] | can not enter the cells

— patent US20160152976A1, “COMPOUND ADMINISTRATION PRECURSOR AND MEDICAMENT CARRIER PREPARATION” (HitGen LTD., priority 2013, published 2016)
